Experimental data published in ChEMBL document CHEMBL1154562, “Malevamides A-C, new depsipeptides from the marine cyanobacterium Symploca laete-viridis” (J Nat Prod, 2000).
Activity calls are given as the source filed them.

Tests used:
Type in all cases: functional, cell-based
[1] = tested on: P388; experiment: Cytotoxicity against mouse P388 cells at 2 ug/mL
[2] = tested on: HT-29; experiment: Cytotoxicity against human HT29 cells at 2 ug/mL
[3] = tested on: A549; experiment: Cytotoxicity against human A549 cells at 2 ug/mL

Measured: Activity

CCCCC(C)C(=O)N1CCC[C@H]1C(=O)N(C)C(Cc1ccccc1)C(=O)NCC(=O)N(C)[C@@H](C(=O)N[C@H](C(=O)NCC(=O)N(C)C(Cc1ccccc1)C(=O)N1CCC[C@@H]1C(=O)OC)[C@@H](C)CC)C(C)C (some centres undefined)
inactive: all assays above

CCCC1NC(=O)[C@H](Cc2ccccc2)N(C)C(=O)[C@@H]2CCCN2C(=O)C(C(C)C)N(C)C(=O)[C@@H]2CCCN2C(=O)[C@H]([C@@H](C)CC)NC(=O)C(C(C)C)N(C)C(=O)[C@@H]2CCCN2C(=O)C(C(C)C)N(C)C(=O)C(C(C)C)N(C)C(=O)[C@H](C(C)C)NC(=O)[C@H](C)N(C)C(=O)[C@@H](C(C)C)OC(=O)C1C (some centres undefined)
inactive: all assays above

C#CCCCC1NC(=O)[C@H]([C@@H](C)CC)N(C)C(=O)[C@@H]2CCCN2C(=O)[C@@H]2CCCN2C(=O)[C@H](CC(C)C)NC(=O)[C@H](C(C)C)N(C)C(=O)[C@H](C)NC(=O)[C@@H](C)N(C)C(=O)[C@H](Cc2ccccc2)N(C)C(=O)[C@H](COC)N(C)C(=O)[C@H](C(C)C)N(C)C(=O)[C@@H]2CCCN2C(=O)[C@H](C)NC(=O)[C@H](C(C)C)OC(=O)C1C (some centres undefined)
inactive: all assays above
